We go through two compounds from patent US20250134909A1, “GEL COMPOSITION FOR PREVENTION OR TREATMENT OF ATOPIC DERMATITIS” (SHAPERON INC., priority 2021, published 2025).

Each structure is given as a SMILES string.

The experiment has as its system atopic dermatitis-induced animal model by DNCB. Description: Thickness of the epidermis and dermis (H&E), DNCB-induced atopic dermatitis model. The experiment is classed as in vivo, mice. The note with it: 15th day, FIGS. 5 to 7; for dermal thickness: compared to the DNCB group and the normal Sham group; for skin epithelium thickness: compared to the DNCB group. As to the method: […] of a solution of 2,4-Dinitrochlorobenzene (DNCB) dissolved in acetone at a concentration of 1% or 2% was applied to the backs of mice with hair removed twice a day for 2 days, then on the 3rd day, a solution of […] containing 1% concentration of DNCB dissolved in acetone was applied twice daily, and additional applications of a solution of […] containing 1% concentration of DNCB dissolved in acetone or a solution diluted 10 times were applied twice daily on the shaved backs of mice until the 10th to 11th day starting from the day of the initial application of DNCB solution, to induce atopic dermatitis (FIG. 1).
To compare and confirm the therapeutic effects of 0.5% HY209_HA gel and 5% HY209_PEG gel on atopic dermatitis through measurement of the thickness of the epidermis and dermis in the atopic dermatitis-induced animal model of <Example 2>, each individual in the groups treated with 0.5% HY209_HA Gel, 5% HY209_PEG gel, Maxidex ointment, Eucrisa ointment, and Protopic ointment in <Experimental Example 1> had their atopic dermatitis-induced areas scarified on the 15th day from the induction of atopic dermatitis, and the Sham (untreated) group, where atopic dermatitis was not induced, and the DNCB group, which was not treated after the induction of atopic dermatitis, were also scarified on the 15th day.
After collecting skin tissues from each group of mice, the tissue samples were sliced and then fixed in 10% formalin solution for 24 hours, then rinsed with distilled water, processed into paraffin blocks, and sectioned into […] thickness slices, these slices were stained with Hematoxylin and Eosin (H&E), and observed under an optical microscope, and then the thickness of the epithelium and dermis were measured using image analysis software and analyzed using analysis software.

Regarding `N#Cc1ccc(Oc2ccc3c(c2)COB3O)cc1` [Crisaborole], the dermal thickness result was “recovered close to that of the normal Sham group” and the skin epithelium thickness result is “significantly reduced”.
The like results for `C=CC[C@@H]1/C=C(\C)C[C@H](C)C[C@H](OC)[C@H]2O[C@@](O)(C(=O)C(=O)N3CCCC[C@H]3C(=O)O[C@H](/C(C)=C/[C@@H]3CC[C@@H](O)[C@H](OC)C3)[C@H](C)[C@@H](O)CC1=O)[C@H](C)C[C@@H]2OC` [FK506, Tacrolimus] were, in that order, “recovered close to that of the normal Sham group” and “significantly reduced”.
